The values that follow come from US6884814B2, “Phenyl benzisoxazoles as estrogenic agents” (Wyeth, priority 2001, dated 2005).

One data set deals with T1, human ERβ (Homo sapiens, UniProt Q92731).
T1 construct: M214-Q530 of human ERβ; Flag (C); made in house; host or cells: E. coli BL21(DE3), clarified lysate
Description: Radioligand binding competition with [3H]-17β-estradiol, ERβ. The following applies: human ERβ ligand binding domain, E. coli lysate, read-out: ER-β IC50.

The target of the next data set is T2, human ERα (Homo sapiens, UniProt P03372).
T2 construct: amino acids M250-V595 of human ERα; His (N); made in house; host or cells: E. coli BL21(DE3), clarified lysate
T2 sequence (P03372 250-595): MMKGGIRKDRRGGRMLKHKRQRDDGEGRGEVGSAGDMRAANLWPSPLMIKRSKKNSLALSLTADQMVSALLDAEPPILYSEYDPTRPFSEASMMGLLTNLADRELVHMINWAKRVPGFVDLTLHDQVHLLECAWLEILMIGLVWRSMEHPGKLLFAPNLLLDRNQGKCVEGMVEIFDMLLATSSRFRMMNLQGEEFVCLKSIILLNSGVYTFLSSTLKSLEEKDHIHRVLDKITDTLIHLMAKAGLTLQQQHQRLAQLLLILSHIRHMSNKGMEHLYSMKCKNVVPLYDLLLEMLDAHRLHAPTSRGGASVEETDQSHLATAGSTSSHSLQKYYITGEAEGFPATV
Description: Radioligand binding competition with [3H]-17β-estradiol, ERα. To be noted: human ERα ligand binding domain, E. coli lysate, read-out: ER-α IC50.

Structures are written as SMILES.

T1 sequence (Q92731 214-530): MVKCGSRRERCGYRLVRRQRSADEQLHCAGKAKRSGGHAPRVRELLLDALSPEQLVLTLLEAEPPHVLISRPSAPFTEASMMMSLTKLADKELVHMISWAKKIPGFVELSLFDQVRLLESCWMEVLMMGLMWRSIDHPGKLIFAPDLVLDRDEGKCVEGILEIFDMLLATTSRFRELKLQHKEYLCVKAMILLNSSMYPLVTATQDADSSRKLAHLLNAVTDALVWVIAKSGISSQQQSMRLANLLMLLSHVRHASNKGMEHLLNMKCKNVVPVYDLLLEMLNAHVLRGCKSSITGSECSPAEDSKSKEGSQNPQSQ

Regarding `CCCc1cc(-c2noc3cc(O)ccc23)c(CC(C)C)cc1O` [Example 4, 3-(4-Hydroxy-2-isobutyl-5-propylphenyl)-1,2-benzisoxazol-6-ol], the half-inhibitory concentration (IC50) on human ERβ came out at 0.02 µM; on human ERα, 0.038 µM.

Turning to `Oc1ccc2c(-c3ccccc3O)noc2c1` [Example 9, 3-(2-Hydroxyphenyl)-1,2-benzisoxazol-6-ol], the IC50 at human ERα came out at 5 µM.

`Oc1ccc(O)c(-c2noc3cc(O)ccc23)c1` [Example 10, 2-(6-Hydroxy-1,2-benzisoxazol-3-yl)benzene-1,4-diol] gave a melting point of 215 to 217 °C. Also, the concentration for half-maximal inhibition (IC50) at human ERβ turned out to be 0.254 µM. The IC50 on human ERα was found to be 3 µM.

Turning to `Oc1ccc(-c2noc3c(Br)cc(O)cc23)cc1` [Example 13, 7-Bromo-3-(4-hydroxyphenyl)-1,2-benzisoxazol-5-ol], the melting point lay within 267 to 270 °C. Also, at human ERβ, the concentration for half-maximal inhibition (IC50) was 0.208 µM. Moreover, the IC50 at human ERα worked out at 2 µM.

As a reminder, the IC50 is the point on the concentration scale where inhibition reaches its midpoint. The melting point is the temperature, or range, at which the solid turns liquid.
